From patent US20240116985A1, “STAPLED PEPTIDES AND METHODS THEREOF” (priority 2020, published 2024)
pIC50: −log10 of the molar value. ≈ marks a conversion by molar mass, not a printed value. Like-named read-outs stand apart in the source and are kept apart here.

Experiments:
[1] = target: T1, beta-catenin/TCF4 engagement (Homo sapiens, UniProt P35222); assay: Nano-BRET target engagement assay (B-cat-Halo & TCF4-Luc in HEK293 cells); type: cell-based; conditions: for pIC50: absolute IC50, read-out: NanoBRET Abs IC50; for inhibition at 10 µM: HEK293, @ 10 uM, read-out: NanoBRET % inh @ 10 uM
T1 construct: expressed in transfected cells; host or cells: HEK293
T1 sequence (P35222 1-781): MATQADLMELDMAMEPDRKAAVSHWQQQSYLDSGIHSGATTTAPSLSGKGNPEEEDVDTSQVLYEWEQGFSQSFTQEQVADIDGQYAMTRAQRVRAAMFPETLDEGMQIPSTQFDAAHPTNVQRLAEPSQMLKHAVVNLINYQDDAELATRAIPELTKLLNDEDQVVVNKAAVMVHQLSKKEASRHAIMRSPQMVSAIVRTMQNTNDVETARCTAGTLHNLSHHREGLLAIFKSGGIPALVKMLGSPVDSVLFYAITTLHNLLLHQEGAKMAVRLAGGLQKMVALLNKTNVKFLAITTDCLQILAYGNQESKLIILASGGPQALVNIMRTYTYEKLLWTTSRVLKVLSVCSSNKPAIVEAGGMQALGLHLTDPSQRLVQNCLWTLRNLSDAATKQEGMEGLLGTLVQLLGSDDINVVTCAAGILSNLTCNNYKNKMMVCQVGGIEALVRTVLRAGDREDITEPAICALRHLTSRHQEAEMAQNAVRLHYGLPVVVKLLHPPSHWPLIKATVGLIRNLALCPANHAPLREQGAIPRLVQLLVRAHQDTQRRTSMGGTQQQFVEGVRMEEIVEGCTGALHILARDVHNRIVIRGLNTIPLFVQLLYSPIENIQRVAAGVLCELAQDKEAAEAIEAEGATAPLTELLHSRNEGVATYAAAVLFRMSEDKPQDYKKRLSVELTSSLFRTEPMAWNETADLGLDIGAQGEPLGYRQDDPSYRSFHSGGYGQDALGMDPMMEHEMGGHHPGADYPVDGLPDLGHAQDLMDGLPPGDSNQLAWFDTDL

[2] = target: T2, full-length beta-Catenin (Uniprot ID P35222) (Homo sapiens, UniProt P35222); assay: Fluorescence polarization IC50 (beta-catenin / 5FAM-TCF4 10-53 competition); type: binding
T2 construct: 10 nM full-length beta-Catenin (Uniprot ID P35222)
T2 sequence (P35222 1-781): T1 sequence (P35222 1-781)

Solubility in PBS = type: physicochemical
Method in brief: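 Steps: ultracentrifuge the peptide PBS solution, inject the supernatant on HPLC, inject a 50 μM peptide DMSO solution as reference, then calculate solubility as area ratio (PBS/DMSO) × 50 uM.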

CHI Log D procedure = type: physicochemical; conditions: for CHI Log D: pH 7.4
[3] = fluorescence polarization, read-out: beta-Catenin FP IC50

| SMILES | pIC50 [1] | pIC50 [2, 3] | pIC50 ([2]; read-out: FP EC50) | Solubility (Solubility in PBS) [µM] | CHI Log D (CHI Log D procedure) | inhibition at 10 µM [1] [%] | Solubility (Solubility in PBS; Solubility (uM)) [µM] | chromatographic logD (CHI Log D procedure; pH 7.4, CHI Log D) |
| --- | --- | --- | --- | --- | --- | --- | --- | --- |
| CC(=O)N1CCC[C@]12CC=CCCCC1(CCCC=CCCCCCC[C@@](C)(C(=O)N[C@@H](Cc3ccsc3)C(=O)N[C@@H](Cc3csc4ccccc34)C(=O)N[C@@H](CCC(N)=O)C(N)=O)NC(=O)[C@H](CC(N)=O)NC(=O)[C@H](Cc3ccccc3)NC(=O)[C@H](C)NC(=O)[C@H](C)NC(=O)[C@H](CCC(=O)O)NC(=O)[C@H](CC(=O)O)NC1=O)NC(=O)[C@H](CC(C)(C)C)NC(=O)[C@H](CC(=O)O)NC2=O (stereo partly drawn) [I-683, Ac-PL3-Asp-Npg-B5-Asp-Glu-Ala-Ala-Phe-Asn-S8-3Thi-BztA-Gln-NH2] | 5.17 | 7.72 | 7.72 | 37 (≈ 69.9 µg/mL) | 2.44 | – | – | – |
| CC(=O)N1CCC[C@]12CC=CCCCC1(CCCC=CCCCOC(=O)N3CC[C@@](C(=O)N[C@@H](Cc4ccccc4)C(=O)N[C@@H](Cc4csc5ccccc45)C(=O)N[C@@H](CCC(N)=O)C(N)=O)(C3)NC(=O)[C@H](CC(N)=O)NC(=O)[C@H](Cc3ccccc3)NC(=O)[C@H](C)NC(=O)[C@H](C)NC(=O)[C@H](CCC(=O)O)NC(=O)[C@H](CC(=O)O)NC1=O)NC(=O)[C@H](CC(C)(C)C)NC(=O)[C@H](CC(=O)O)NC2=O (stereo partly drawn) [I-684, Ac-PL3-Asp-Npg-B5-Asp-Glu-Ala-Ala-Phe-Asn-PyrS2-Phe-BztA-Gln-NH2] | 4.84 | 7.82 | 7.82 | 44 (≈ 84.8 µg/mL) | 2.037 | – | – | – |
| CC(=O)N1CCC[C@]12CC=CCCCC1(CCCC=CCCCOC(=O)N3CC[C@@](C(=O)N[C@@H](Cc4ccccc4)C(=O)N[C@@H](Cc4csc5ccccc45)C(=O)N[C@@H](CCC(N)=O)C(N)=O)(C3)NC(=O)[C@H](CC(N)=O)NC(=O)[C@H](Cc3ccccc3)NC(=O)[C@H](C)NC(=O)[C@H](C)NC(=O)[C@H](CCC(=O)O)NC(=O)[C@H](CC(=O)O)NC1=O)NC(=O)[C@H](CC(C)(C)C)NC(=O)[C@H](CC(=O)O)NC2=O (stereo partly drawn) [I-685, Ac-PL3-Asp-Npg-B5-Asp-Glu-Ala-Ala-Phe-Asn-PyrS2-Phe-BztA-Gln-NH2] | 4.71 | 7.60 | 7.60 | 44 (≈ 84.8 µg/mL) | 2.1 | – | – | – |
| CC(=O)N1CCC[C@]12CC=CCCCC1(CCCC=CCCCOC(=O)N3CC[C@@](C(=O)N[C@@H](Cc4ccsc4)C(=O)N[C@@H](Cc4csc5ccccc45)C(=O)N[C@@H](CCC(N)=O)C(N)=O)(C3)NC(=O)[C@H](CC(N)=O)NC(=O)[C@H](Cc3ccccc3)NC(=O)[C@H](C)NC(=O)[C@H](C)NC(=O)[C@H](CC(=O)O)NC(=O)[C@H](CC(=O)O)NC1=O)NC(=O)[C@H](CC(C)C)NC(=O)[C@H](CC(=O)O)NC2=O (stereo partly drawn) [I-688, Ac-PL3-Asp-Leu-B5-Asp-Asp-Ala-Ala-Phe-Asn-PyrS2-3Thi-BztA-Gln-NH2] | 4.52 | 8.22 | 8.22 | 46 (≈ 87.6 µg/mL) | 1.924 | – | – | – |
| CC(=O)N1CCC[C@]12CC=CCCCC1(CCCC=CCCCOC(=O)N3CC[C@@](C(=O)N[C@@H](Cc4ccccc4)C(=O)N[C@@H](Cc4csc5ccccc45)C(=O)N[C@@H](Cc4c[nH]cn4)C(N)=O)(C3)NC(=O)[C@H](CC(N)=O)NC(=O)[C@H](Cc3ccccc3)NC(=O)[C@H](C)NC(=O)[C@H](C)NC(=O)[C@H](CCC(=O)O)NC(=O)[C@H](CC(=O)O)NC1=O)NC(=O)[C@H](CC(C)(C)C)NC(=O)[C@H](CC(=O)O)NC2=O (stereo partly drawn) [I-692, Ac-PL3-Asp-Npg-B5-Asp-Glu-Ala-Ala-Phe-Asn-PyrS2-Phe-BztA-His-NH2] | 4.59 | 8.05 | 8.05 | 38 (≈ 73.5 µg/mL) | 2.12 | – | – | – |
| CC(=O)N1CCC[C@]12CC=CCCCC1(CCCC=CCCCOC(=O)N3CC[C@@](C(=O)N[C@@H](Cc4ccsc4)C(=O)N[C@@H](Cc4csc5ccccc45)C(=O)N[C@@H](Cc4c[nH]cn4)C(N)=O)(C3)NC(=O)[C@H](CC(N)=O)NC(=O)[C@H](Cc3ccccc3)NC(=O)[C@H](C)NC(=O)[C@H](C)NC(=O)[C@H](CC(=O)O)NC(=O)[C@H](CC(=O)O)NC1=O)NC(=O)[C@H](CC(C)(C)C)NC(=O)[C@H](CC(=O)O)NC2=O (stereo partly drawn) [I-694, Ac-PL3-Asp-Npg-B5-Asp-Asp-Ala-Ala-Phe-Asn-PyrS2-3Thi-BztA-His-NH2] | – | 8.30 | – | 40 (≈ 77.1 µg/mL) | 2.073 | 32.7 | – | – |
| CC(=O)N1CCC[C@]12CC=CCCCC1(CCCC=CCCCOC(=O)N3CC[C@@](C(=O)N[C@@H](Cc4ccsc4)C(=O)N[C@@H](Cc4csc5ccccc45)C(=O)N[C@@H](Cc4c[nH]cn4)C(N)=O)(C3)NC(=O)[C@H](CC(N)=O)NC(=O)[C@H](Cc3ccccc3)NC(=O)[C@H](C)NC(=O)[C@H](C)NC(=O)[C@H](CC(=O)O)NC(=O)[C@H](CC(=O)O)NC1=O)NC(=O)[C@H](CC(C)C)NC(=O)[C@H](CC(=O)O)NC2=O (stereo partly drawn) [I-696, Ac-PL3-Asp-Leu-B5-Asp-Asp-Ala-Ala-Phe-Asn-PyrS2-3Thi-BztA-His-NH2] | – | 8.30 | – | – | – | 17 | 40 (≈ 76.5 µg/mL) | 2 |

Now from value to compound:

| pIC50 [1] | pIC50 [2, 3] | pIC50 ([2]; read-out: FP EC50) | Solubility (Solubility in PBS) [µM] | CHI Log D (CHI Log D procedure) | inhibition at 10 µM [1] [%] | Solubility (Solubility in PBS; Solubility (uM)) [µM] | chromatographic logD (CHI Log D procedure; pH 7.4, CHI Log D) | SMILES |
| --- | --- | --- | --- | --- | --- | --- | --- | --- |
| 4.47 | 7.96 | 7.96 | 50 (≈ 95.2 µg/mL) | 1.957 | – | – | – | CC(=O)N1CCC[C@]12CC=CCCCC1(CCCC=CCCCOC(=O)N3CC[C@@](C(=O)N[C@@H](Cc4ccsc4)C(=O)N[C@@H](Cc4csc5ccccc45)C(=O)N[C@@H](CCC(N)=O)C(N)=O)(C3)NC(=O)[C@H](CC(N)=O)NC(=O)[C@H](Cc3ccccc3)NC(=O)[C@H](C)NC(=O)[C@H](C)NC(=O)[C@H](CC(=O)O)NC(=O)[C@H](CC(=O)O)NC1=O)NC(=O)[C@H](CC(C)C)NC(=O)[C@H](CC(=O)O)NC2=O (stereo partly drawn) [I-689, Ac-PL3-Asp-Leu-B5-Asp-Asp-Ala-Ala-Phe-Asn-PyrS2-3Thi-BztA-Gln-NH2] |
| 4.75 | 8.15 | 8.15 | 44 (≈ 85 µg/mL) | 2.013 | – | – | – | CC(=O)N1CCC[C@]12CC=CCCCC1(CCCC=CCCCOC(=O)N3CC[C@@](C(=O)N[C@@H](Cc4ccsc4)C(=O)N[C@@H](Cc4csc5ccccc45)C(=O)N[C@@H](CCC(N)=O)C(N)=O)(C3)NC(=O)[C@H](CC(N)=O)NC(=O)[C@H](Cc3ccccc3)NC(=O)[C@H](C)NC(=O)[C@H](C)NC(=O)[C@H](CCC(=O)O)NC(=O)[C@H](CC(=O)O)NC1=O)NC(=O)[C@H](CC(C)(C)C)NC(=O)[C@H](CC(=O)O)NC2=O (stereo partly drawn) [I-690, Ac-PL3-Asp-Npg-B5-Asp-Glu-Ala-Ala-Phe-Asn-PyrS2-3Thi-BztA-Gln-NH2] |
| 4.77 | 8.05 | 8.05 | 45 (≈ 86.9 µg/mL) | 2.068 | – | – | – | CC(=O)N1CCC[C@]12CC=CCCCC1(CCCC=CCCCOC(=O)N3CC[C@@](C(=O)N[C@@H](Cc4ccsc4)C(=O)N[C@@H](Cc4csc5ccccc45)C(=O)N[C@@H](CCC(N)=O)C(N)=O)(C3)NC(=O)[C@H](CC(N)=O)NC(=O)[C@H](Cc3ccccc3)NC(=O)[C@H](C)NC(=O)[C@H](C)NC(=O)[C@H](CCC(=O)O)NC(=O)[C@H](CC(=O)O)NC1=O)NC(=O)[C@H](CC(C)(C)C)NC(=O)[C@H](CC(=O)O)NC2=O (stereo partly drawn) [I-691, Ac-PL3-Asp-Npg-B5-Asp-Glu-Ala-Ala-Phe-Asn-PyrS2-3Thi-BztA-Gln-NH2] |
| 4.55 | 7.92 | 7.92 | 34 (≈ 65.8 µg/mL) | 2.184 | – | – | – | CC(=O)N1CCC[C@]12CC=CCCCC1(CCCC=CCCCOC(=O)N3CC[C@@](C(=O)N[C@@H](Cc4ccccc4)C(=O)N[C@@H](Cc4csc5ccccc45)C(=O)N[C@@H](Cc4c[nH]cn4)C(N)=O)(C3)NC(=O)[C@H](CC(N)=O)NC(=O)[C@H](Cc3ccccc3)NC(=O)[C@H](C)NC(=O)[C@H](C)NC(=O)[C@H](CCC(=O)O)NC(=O)[C@H](CC(=O)O)NC1=O)NC(=O)[C@H](CC(C)(C)C)NC(=O)[C@H](CC(=O)O)NC2=O (stereo partly drawn) [I-693, Ac-PL3-Asp-Npg-B5-Asp-Glu-Ala-Ala-Phe-Asn-PyrS2-Phe-BztA-His-NH2] |
